Laboratory results: patent US10842892B2, “Methods and apparatus for synthesizing imaging agents, and intermediates thereof” (Lantheus Medical Imaging, Inc., priority 2010, dated 2020)

Test system: control and MI rabbits
Assay: cardiovascular evaluation (ECG, arterial pressure) after injection in control and MI rabbits
Assay type: in vivo, rabbit
Experimental: PET images and cardiovascular parameters were evaluated in both normal and MI rabbits. Prior to imaging, the rabbit was anesthetized with ketamine (25 mg/Kg, im) and xylazine (5 mg/Kg, im) and the marginal ear vein was catheterized for imaging agent 1 injection. The right femoral artery was isolated and canulated with a Millar catheter (SPC340, Millar Instruments, Houston, Tex.) for arterial pressure measurement. Then the animal was positioned in a microPET camera (Focus220, CTI Molecular Imaging, Inc. Knoxville, Tenn.) for cardiac imaging. The Millar catheter was connected to a computer driven data acquisition system (MP35, BIOPAC Systems, Goleta, Calif.) for recording of mean arterial pressure (MAP), and systolic and diastolic arterial pressure (SAP and DAP). In addition, electrocardiogram (ECG) was also recorded with 3 non-invasive limb leads in lead II configuration using the BIOPAC system. Heart rate (HR) and QT interval were derived from ECG recording. After a stabilization period, cardiovascular parameters: MAP, SBP, DBP and ECG, were recorded 5 minutes before imaging agent 1 intravenous injection (˜1.5 mCi) and the recording continued for additional 20 minutes post-injection. The rabbit was imaged for 30 minutes.
Data are expressed as mean±SD and unpaired student t-test (assuming unequal variances) was used for comparison of baseline values between control and MI rabbits. p<0.05 was considered statistically significant. At each timepoint (before and 1-, 5-, 10- and 20-minute after imaging agent 1 injection), MAP, SAP and DAP measured intraarterially averaged every 10-second, and HR and QTc interval derived from ECG recording averaged every 12 heart beats. The QT interval was manually defined by one investigator and QTc was generated from QT corrected by RR interval using Fridericia method (QTc=QT/RR1/3).9

CC(C)(C)n1ncc(OCc2ccc(COCC[18F])cc2)c(Cl)c1=O [imaging agent 1, 2-t-butyl-4-chloro-5-[4-(2-(^18F)fluoroethoxymethyl)-benzyloxy]-2H-pyridazin-3-1]
QTc, change from baseline after injection (Control rabbits (n = 3), 1 min): 2 ± 15 ms | QTc, change from baseline after injection (Control rabbits (n = 3), 5 min): -1 ± 11 ms | QTc, change from baseline after injection (Control rabbits (n = 3), 10 min): 6 ± 20 ms | QTc, change from baseline after injection (Control rabbits (n = 3), 20 min): 9 ± 15 ms | Diastolic AP, change from baseline after injection (Control rabbits, 1 min): 0 ± 1 mmHg | Heart rate, change from baseline after injection (Control rabbits, 1 min): −4 ± 2 beat/min | Mean AP, change from baseline after injection (Control rabbits, 1 min): 0 ± 0 mmHg | Systolic AP, change from baseline after injection (Control rabbits, 1 min): 0 ± 1 mmHg | Diastolic AP, change from baseline after injection (Control rabbits, 5 min): −1 ± 2 mmHg | Heart rate, change from baseline after injection (Control rabbits, 5 min): −2 ± 1 beat/min | Mean AP, change from baseline after injection (Control rabbits, 5 min): −2 ± 0 mmHg | Systolic AP, change from baseline after injection (Control rabbits, 5 min): −2 ± 1 mmHg | Diastolic AP, change from baseline after injection (Control rabbits, 10 min): 0 ± 5 mmHg | Heart rate, change from baseline after injection (Control rabbits, 10 min): −2 ± 4 beat/min | Mean AP, change from baseline after injection (Control rabbits, 10 min): −2 ± 3 mmHg | Systolic AP, change from baseline after injection (Control rabbits, 10 min): −1 ± 6 mmHg | Diastolic AP, change from baseline after injection (Control rabbits, 20 min): 0 ± 5 mmHg | Heart rate, change from baseline after injection (Control rabbits, 20 min): −4 ± 4 beat/min | Mean AP, change from baseline after injection (Control rabbits, 20 min): −1 ± 6 mmHg | Systolic AP, change from baseline after injection (Control rabbits, 20 min): 0 ± 5 mmHg | QTc, change from baseline after injection (MI rabbits (n = 4), 1 min): 8 ± 5 ms | QTc, change from baseline after injection (MI rabbits (n = 4), 5 min): 4 ± 6 ms | QTc, change from baseline after injection (MI rabbits (n = 4), 10 min): 4 ± 8 ms | QTc, change from baseline after injection (MI rabbits (n = 4), 20 min): 3 ± 12 ms | Diastolic AP, change from baseline after injection (MI rabbits, 1 min): 1 ± 1 mmHg | Heart rate, change from baseline after injection (MI rabbits, 1 min): 6 ± 5 beat/min | Mean AP, change from baseline after injection (MI rabbits, 1 min): 2 ± 1 mmHg | Systolic AP, change from baseline after injection (MI rabbits, 1 min): 1 ± 2 mmHg | Diastolic AP, change from baseline after injection (MI rabbits, 5 min): 2 ± 2 mmHg | Heart rate, change from baseline after injection (MI rabbits, 5 min): 3 ± 8 beat/min | Mean AP, change from baseline after injection (MI rabbits, 5 min): 2 ± 2 mmHg | Systolic AP, change from baseline after injection (MI rabbits, 5 min): 2 ± 2 mmHg | Diastolic AP, change from baseline after injection (MI rabbits, 10 min): 1 ± 1 mmHg | Heart rate, change from baseline after injection (MI rabbits, 10 min): 1 ± 6 beat/min | Mean AP, change from baseline after injection (MI rabbits, 10 min): −1 ± 2 mmHg | Systolic AP, change from baseline after injection (MI rabbits, 10 min): 0 ± 1 mmHg | Diastolic AP, change from baseline after injection (MI rabbits, 20 min): 2 ± 2 mmHg | Heart rate, change from baseline after injection (MI rabbits, 20 min): −7 ± 10 beat/min | Mean AP, change from baseline after injection (MI rabbits, 20 min): 2 ± 3 mmHg | Systolic AP, change from baseline after injection (MI rabbits, 20 min): 1 ± 7 mmHg | effect on MAP, SAP and DAP (MI rabbits, during and after administration): no alterations of these parameters were observed | effect on ECG waveform, cardiac rhythm, HR and QTc interval (control or MI rabbits, 1-, 5-, 10- and 20-minute post iv injection): did not alter | effect on MAP, SAP and DAP (control rabbits): did not induce changes
